In US20250026745A1 (Bluejay Therapeutics, Inc., priority 2023, published 2025):
Read-outs that look alike come from different tables or passages of the source.

Key:
[1] = biological target: recombinant 17β-HSD13 protein (Homo sapiens (Human), UniProt Q7Z5P4); assay: 17β-HSD13 biochemical assay (NAD+/NADH Glo chemiluminescence); details: 17β-HSD13 50 nM, NAD+ 10 mM, β-estradiol 20 μM, 2 hours room temperature
How it was run: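 Compounds preincubated 1 h at room temperature with 50 nM enzyme and 10 mM NAD+ (final) in 200 mM Tris pH 7.5, 0.01% Triton X-100, 0.02% BSA. Reaction started with 20 μM β-estradiol and run 2 hours at room temperature; NADH formation detected by NAD+/NADH-Glo chemiluminescence. IC50 from four-parameter logistic fit.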

[2] = biological target: HEK293 cells expressing 17β-HSD13 (Homo sapiens (Human), UniProt Q7Z5P4); assay: 17β-HSD13 cell-based assay (β-estradiol conversion, LC-MS/MS)
Sequence of HEK293 cells expressing 17β-HSD13 (Q7Z5P4 20-300): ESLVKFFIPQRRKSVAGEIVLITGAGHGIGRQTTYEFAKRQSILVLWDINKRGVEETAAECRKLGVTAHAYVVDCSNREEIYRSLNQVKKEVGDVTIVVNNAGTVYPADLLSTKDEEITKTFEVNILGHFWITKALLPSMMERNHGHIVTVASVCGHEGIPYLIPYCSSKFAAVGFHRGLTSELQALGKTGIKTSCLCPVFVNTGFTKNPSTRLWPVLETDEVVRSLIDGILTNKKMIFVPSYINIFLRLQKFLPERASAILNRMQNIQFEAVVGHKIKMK
Method: HEK293 cells expressing 17β-HSD13 either stably or transiently were incubated with compounds for 60 min at 37° C. in a humidified incubator. After this first incubation step, β-estradiol was added to each well of the microtiter plate and incubated for 3 h at 37° C. in the humidified incubator. After treatment with β-Estradiol, 50 μL of supernatant was transferred to a 96-V plate containing 100 μL acetonitrile and centrifuged at 3900 rpm for 45 min. Finally, 50 μL of supernatant were taken for LC-MS/MS analysis. The chromatography part was run on a Xbridge 30 mm×2.1 mm column (Waters), at 40 degrees Celsius and a flow rate of 0.8 mL/min for 5 min, while the MS was done on a Q Exactive Orbitrap (Fisher Scientific) in Target SIM mode and negative polarity with a spray voltage of 3.5 kV. EC50 values were determined with GraphPad Prism®, where log-transformed concentration values and the inhibition data were fitted to a four-parameter logistic equation. Y=Bottom+(Top−Bottom)/(1+10^((Log EC50−X)*Hill Slope)). The original, % control, or % inhibition data are represented by Y along with their minimal (Bottom) and maximal (Top) values. The inhibitor concentration is represented by X, EC50 is the concentration at 50% maximal value, and Hill Slope is the slope factor.

[3] = HEK293 cells stably expressing 17β-HSD13 (footnote b), read-out: EC50, nM Stable
[4] = HEK293 cells transiently expressing 17β-HSD13 (footnote a), read-out: EC50, nM Transient

Sequence of recombinant 17β-HSD13 protein (Q7Z5P4 20-300): as above

Compound | IC50 [1] | EC50 [2, 3] | EC50 [2, 4]
O=C1N([C@@H](c2ccc(-c3ccc(F)cc3)cc2F)C(F)(F)F)C(=O)C2(CC2)N1Cc1nnc(-c2ccc(F)c(O)n2)s1 [Compound I-96, (S)-6-(1-(3,4′-difluoro-[1,1′-biphenyl]-4-yl)-2,2,2-trifluoroethyl)-4-((5-(5-fluoro-6-hydroxypyridin-2-yl)-1,3,4-thiadiazol-2-yl)methyl)-4,6-diazaspiro[2.4]heptane-5,7-dione] | 3.11 nM | 121 nM | –
CC(C)(C)N1C(=O)N(Cc2nnc(-c3ccc(F)c(O)c3Cl)s2)C2(CC2)C1=O [Compound I-50, 6-(tert-butyl)-4-((5-(2-chloro-4-fluoro-3-hydroxyphenyl)-1,3,4-thiadiazol-2-yl)methyl)-4,6-diazaspiro[2.4]heptane-5,7-dione] | 4.6 nM | 35.1 ± 6.03 nM | –
O=C1N([C@H](c2ccc(F)cc2F)C(F)(F)F)C(=O)C2(CC2)N1Cc1nnc(-c2ccc(F)c(O)c2F)s1 [Compound I-90A, (R)-4-((5-(2,4-difluoro-3-hydroxyphenyl)-1,3,4-thiadiazol-2-yl)methyl)-6-(1-(2,4-difluorophenyl)-2,2,2-trifluoroethyl)-4,6-diazaspiro[2.4]heptane-5,7-dione] | 1.01 ± 0.125 nM | 8.38 nM | –
CCN1C(=O)C(C)N(Cc2nnc(-c3ccc(F)c(O)c3F)s2)C1=O (centres unmarked) [Compound I-3, 1-((5-(2,4-difluoro-3-hydroxyphenyl)-1,3,4-thiadiazol-2-yl)methyl)-3-ethyl-5-methylimidazolidine-2,4-dione] | 86.1 nM | – | 175 nM
C[C@H](c1ccccc1)N1C(=O)N(Cc2nnc(-c3ccc(F)c(O)c3Cl)s2)C2(CC2)C1=O [Compound I-31, 4-[[5-(2-chloro-4-fluoro-3-hydroxy-phenyl)-1,3,4-thiadiazol-2-yl]methyl]-6-[(1R)-1-phenylethyl]-4,6-diazaspiro[2.4]heptane-5,7-dione] | 2.68 nM | 10.8 nM | –
CCN1C(=O)N(Cc2nnc(-c3ccc(F)c(O)c3F)s2)C2(CC2)C1=O [Compound I-7, 4-((5-(2,4-difluoro-3-hydroxyphenyl)-1,3,4-thiadiazol-2-yl)methyl)-6-ethyl-4,6-diazaspiro[2.4]heptane-5,7-dione] | 16.6 ± 8.74 nM | – | 18.8 nM
6-cyclopropyl-4-[[5-(2,4-difluoro-3-hydroxy-phenyl)-1,3,4-thiadiazol-2-yl]methyl]-4,6-diazaspiro[2.4]heptane-5,7-dione [Compound I-41] | 4.15 nM | 18.9 nM | –
O=C1N(CC2(C(F)(F)F)CC2)C(=O)C2(CC2)N1Cc1nnc(-c2ccc(F)c(O)c2F)s1 [Compound I-19, 4-((5-(2,4-difluoro-3-hydroxyphenyl)-1,3,4-thiadiazol-2-yl)methyl)-6-((1-(trifluoromethyl)cyclopropyl)methyl)-4,6-diazaspiro[2.4]heptane-5,7-dione] | 14.8 ± 2.51 nM | 78.8 nM | –
O=C1N(CC23CC(C2)C3)C(=O)C2(CC2)N1Cc1nnc(-c2ccc(F)c(O)c2F)s1 [Compound I-6, 6-(bicyclo[1.1.1]pentan-1-ylmethyl)-4-((5-(2,4-difluoro-3-hydroxyphenyl)-1,3,4-thiadiazol-2-yl)methyl)-4,6-diazaspiro[2.4]heptane-5,7-dione] | 22.1 ± 2.18 nM | – | 165 nM
C[C@@H](c1ccccc1)N1C(=O)N(Cc2nnc(-c3ccc(F)c(O)c3Cl)s2)C2(CC2)C1=O [Compound I-32, (S)-4-((5-(2-chloro-4-fluoro-3-hydroxyphenyl)-1,3,4-thiadiazol-2-yl)methyl)-6-(1-phenylethyl)-4,6-diazaspiro[2.4]heptane-5,7-dione] | 3.72 nM | 14.7 nM | –
O=C1N(Cc2ccccc2)C(=O)C2(CC2)N1Cc1nnc(-c2ccc(F)c(O)c2F)s1 [Compound I-20, 6-benzyl-4-((5-(2,4-difluoro-3-hydroxyphenyl)-1,3,4-thiadiazol-2-yl)methyl)-4,6-diazaspiro[2.4]heptane-5,7-dione] | 2.28 ± 0.933 nM | 11.6 nM | –
CCN1C(=O)N(Cc2nnc(-c3ccc(F)c(O)c3Cl)s2)C2(CC2)C1=O [Compound I-10, 4-((5-(2-chloro-4-fluoro-3-hydroxyphenyl)-1,3,4-thiadiazol-2-yl)methyl)-6-ethyl-4,6-diazaspiro[2.4]heptane-5,7-dione] | 17.9 ± 0.0566 nM | 51 nM | 118 nM
O=C1N(Cc2ccc(Cl)cc2Cl)C(=O)C2(CC2)N1Cc1nnc(-c2ccc(F)c(O)c2Cl)s1 [Compound I-34, 4-((5-(2-chloro-4-fluoro-3-hydroxyphenyl)-1,3,4-thiadiazol-2-yl)methyl)-6-(2,4-dichlorobenzyl)-4,6-diazaspiro[2.4]heptane-5,7-dione] | 4.6 nM | 119 nM | –
C[C@H](c1ccccc1)N1C(=O)N(Cc2nnc(-c3ccc(F)c(O)c3F)s2)C2(CC2)C1=O [Compound I-82, (R)-4-((5-(2,4-difluoro-3-hydroxyphenyl)-1,3,4-thiadiazol-2-yl)methyl)-6-(1-phenylethyl)-4,6-diazaspiro[2.4]heptane-5,7-dione] | 1.76 ± 0.26 nM | 8.42 nM | –
CCN1C(=O)N(Cc2nnc(-c3cc(O)cc(C(F)(F)F)c3)s2)C2(CC2)C1=O [Compound I-22, 6-ethyl-4-((5-(3-hydroxy-5-(trifluoromethyl)phenyl)-1,3,4-thiadiazol-2-yl)methyl)-4,6-diazaspiro[2.4]heptane-5,7-dione] | 41 ± 3.9 nM | 144 nM | –
CCN1C(=O)N(Cc2nnc(-c3ccc(Cl)c(O)c3Cl)s2)C2(CC2)C1=O [Compound I-9, 4-((5-(2,4-dichloro-3-hydroxyphenyl)-1,3,4-thiadiazol-2-yl)methyl)-6-ethyl-4,6-diazaspiro[2.4]heptane-5,7-dione] | 150 nM | – | 960 nM
CCN1C(=O)N(Cc2nnc(-c3cc(C(F)(F)F)cc(O)c3F)s2)C2(CC2)C1=O [Compound I-14, 6-ethyl-4-[[5-[2-fluoro-3-hydroxy-5-(trifluoromethyl)phenyl]-1,3,4-thiadiazol-2-yl]methyl]-4,6-diazaspiro[2.4]heptane-5,7-dione] | 9.6 nM | 125 nM | –
CCCN1C(=O)N(Cc2nnc(-c3ccc(F)c(O)c3F)s2)C2(CC2)C1=O [Compound I-4, 4-((5-(2,4-difluoro-3-hydroxyphenyl)-1,3,4-thiadiazol-2-yl)methyl)-6-propyl-4,6-diazaspiro[2.4]heptane-5,7-dione] | 10.6 ± 0.919 nM | – | 20.6 nM
CC[C@@H](C)N1C(=O)N(Cc2nnc(-c3ccc(F)c(O)c3F)s2)C2(CC2)C1=O [Compound I-42, (R)-6-(sec-butyl)-4-((5-(2,4-difluoro-3-hydroxyphenyl)-1,3,4-thiadiazol-2-yl)methyl)-4,6-diazaspiro[2.4]heptane-5,7-dione] | 4.08 nM | 15.7 nM | –
O=C1N(C(c2ccccc2)C(F)(F)F)C(=O)C2(CC2)N1Cc1nnc(-c2ccc(F)c(O)c2Cl)s1 (stereo in doubt) [Compound I-53, 4-[[5-(2-chloro-4-fluoro-3-hydroxy-phenyl)-1,3,4-thiadiazol-2-yl]methyl]-6-[(S)-(difluoromethyl-fluoranyl)-phenyl-methyl]-4,6-diazaspiro[2.4]heptane-5,7-dione] | 5.6 nM | 26.3 nM | –
